This is an account of results in ChEMBL document CHEMBL1147328, “13C-NMR assignments and cytotoxicity assessment of zoanthoxanthin alkaloids from zoanthid corals” (J Nat Prod, 1993).

In brackets after ≈: the same amount, converted by molar mass.

Type in all cases: functional, cell-based
The subject of one assay is HT-29. Kind of assay: Cytotoxicity against human HT-29 cells.
The next assay relates to A549. Kind of assay: Cytotoxicity against human A549 cells.
A further assay has as its system P388. Kind of assay: Cytotoxicity against mouse P388 cells.
The subject of a further assay is HCT-8. Kind of assay: Cytotoxicity against human HCT8 cells.

Take `CNc1nc2c(C)ccc3nc(N(C)C)nc-3c2n1C`: the concentration for half-maximal inhibition (IC50) (in general, the concentration at which inhibition is half-maximal) in the assay with HT-29 is 0.824 µg/mL (≈ 3.05 µM); in the assay with A549, 2.38 µg/mL (≈ 8.8 µM); in the assay with P388 it was 1.77 µg/mL (≈ 6.55 µM); in the assay with HCT-8, 1.61 µg/mL (≈ 5.96 µM).
